Experimental data as given in patent US20240124417A1, “COMPOUNDS USEFUL AS IMMUNOMODULATORS” (Bristol-Myers Squibb Company, priority 2019, published 2024).

Target: T1, PD-1/PD-L1 (Homo sapiens, UniProt Q9NZQ7)
T1 construct: TVMV protease site linker (C); made in house; host or cells: HEK293T cells
Assay: PD-1/PD-L1 Homogenous Time-Resolved Fluorescence (HTRF) binding assay
Details: PD-L1-His 10 nM, PD-1-Ig 20 nM
Outline: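 Time-resolved FRET read-out using Eu-cryptate anti-Ig (1 nM final) and APC anti-His (20 nM final). Tagged extracellular domains were used in BSA/Tween-20-supplemented dPBS, with compound pre-incubated 15 min with PD-L1-His (10 nM) before PD-1-Ig (20 nM) was added for 15 min. Other human pairs: PD-L2-His 5 nM with PD-1-Ig 20 nM; PD-L1-Ig 10 nM with CD80-His 100 nM.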

T1 sequence (Q9NZQ7 18-239): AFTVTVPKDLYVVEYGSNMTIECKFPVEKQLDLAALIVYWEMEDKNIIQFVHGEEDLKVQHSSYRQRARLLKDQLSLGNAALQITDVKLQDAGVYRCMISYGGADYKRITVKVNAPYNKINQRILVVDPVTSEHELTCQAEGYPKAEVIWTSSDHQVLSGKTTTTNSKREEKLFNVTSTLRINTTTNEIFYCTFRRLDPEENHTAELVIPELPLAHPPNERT

Cc1c(COc2cc(OCc3cncc(C#N)c3)c(CN(C)Cc3cc[nH]n3)cc2Cl)cccc1-c1cccc(OCCCN2CCC(O)(CO)CC2)c1Cl [Example 2016, 5-((2-((((1H-pyrazol-3-yl)methyl)(methyl)amino)methyl)-4-chloro-5-((2′-chloro-3′-(3-(4-hydroxy-4-(hydroxymethyl)piperidin-1-yl)propoxy)-2-methyl-[1,1′-biphenyl]-3-yl)methoxy)phenoxy)methyl)nicotinonitrile]
IC50: 0.2 nM

Cc1c(COc2cc(OCc3cncc(C#N)c3)c(CNCc3ccccn3)cc2Cl)cccc1-c1cccc(OCCCN2CC[C@@H](O)C2)c1C [Example 2017, (R)-5-((4-chloro-5-((3′-(3-(3-hydroxypyrrolidin-1-yl)propoxy)-2,2′-dimethyl-[1,1′-biphenyl]-3-yl)methoxy)-2-(((pyridin-2-ylmethyl)amino)methyl)phenoxy)methyl)nicotinonitrile]
IC50: 2.1 nM

Cc1c(COc2cc(OCc3cncc(C#N)c3)c(CNCc3cccnc3)cc2Cl)cccc1-c1cccc(OCCCN2CC[C@@H](O)C2)c1C [Example 2018, (R)-5-((4-chloro-5-((3′-(3-(3-hydroxypyrrolidin-1-yl)propoxy)-2,2′-dimethyl-[1,1′-biphenyl]-3-yl)methoxy)-2-(((pyridin-3-ylmethyl)amino)methyl)phenoxy)methyl)nicotinonitrile]
IC50: 0.8 nM

Cc1c(COc2cc(OCc3cncc(C#N)c3)c(CNCc3ccncc3)cc2Cl)cccc1-c1cccc(OCCCN2CC[C@@H](O)C2)c1C [Example 2019, (R)-5-((4-chloro-5-((3′-(3-(3-hydroxypyrrolidin-1-yl)propoxy)-2,2′-dimethyl-[1,1′-biphenyl]-3-yl)methoxy)-2-(((pyridin-4-ylmethyl)amino)methyl)phenoxy)methyl)nicotinonitrile]
IC50: 4.1 nM

Cc1c(COc2cc(OCc3cncc(C#N)c3)c(CNCc3cnccn3)cc2Cl)cccc1-c1cccc(OCCCN2CC[C@@H](O)C2)c1C [Example 2020, (R)-5-((4-chloro-5-((3′-(3-(3-hydroxypyrrolidin-1-yl)propoxy)-2,2′-dimethyl-[1,1′-biphenyl]-3-yl)methoxy)-2-(((pyrazin-2-ylmethyl)amino)methyl)phenoxy)methyl)nicotinonitrile]
IC50: 2.7 nM

Cc1c(COc2cc(OCc3cncc(C#N)c3)c(CNCc3cccnn3)cc2Cl)cccc1-c1cccc(OCCCN2CC[C@@H](O)C2)c1C [Example 2021, (R)-5-((4-chloro-5-((3′-(3-(3-hydroxypyrrolidin-1-yl)propoxy)-2,2′-dimethyl-[1,1′-biphenyl]-3-yl)methoxy)-2-(((pyridazin-3-ylmethyl)amino)methyl)phenoxy)methyl)nicotinonitrile]
IC50: 6 nM

Cc1c(COc2cc(OCc3cncc(C#N)c3)c(CNCc3cncnc3)cc2Cl)cccc1-c1cccc(OCCCN2CC[C@@H](O)C2)c1C [Example 2022, (R)-5-((4-chloro-5-((3′-(3-(3-hydroxypyrrolidin-1-yl)propoxy)-2,2′-dimethyl-[1,1′-biphenyl]-3-yl)methoxy)-2-(((pyrimidin-5-ylmethyl)amino)methyl)phenoxy)methyl)nicotinonitrile]
IC50: 0.8 nM

Cc1c(COc2cc(OCc3cncc(C#N)c3)c(CN(C)Cc3nc4ccccc4[nH]3)cc2Cl)cccc1-c1cccc(OCCCN2CC[C@@H](O)C2)c1C [Example 2023, (R)-5-((2-((((1H-benzo[d]imidazol-2-yl)methyl)(methyl)amino)methyl)-4-chloro-5-((3′-(3-(3-hydroxypyrrolidin-1-yl)propoxy)-2,2′-dimethyl-[1,1′-biphenyl]-3-yl)methoxy)phenoxy)methyl)nicotinonitrile]
IC50: 8.8 nM

Cc1c[nH]c(CN(C)Cc2cc(Cl)c(OCc3cccc(-c4cccc(OCCCN5CC[C@@H](O)C5)c4C)c3C)cc2OCc2cncc(C#N)c2)n1 [Example 2024, (R)-5-((4-chloro-5-((3′-(3-(3-hydroxypyrrolidin-1-yl)propoxy)-2,2′-dimethyl-[1,1′-biphenyl]-3-yl)methoxy)-2-((methyl((4-methyl-1H-imidazol-2-yl)methyl)amino)methyl)phenoxy)methyl)nicotinonitrile]
IC50: 0.6 nM

Cc1cc(CN(C)Cc2cc(Cl)c(OCc3cccc(-c4cccc(OCCCN5CC[C@@H](O)C5)c4C)c3C)cc2OCc2cncc(C#N)c2)[nH]n1 [Example 2025, (R)-5-((4-chloro-5-((3′-(3-(3-hydroxypyrrolidin-1-yl)propoxy)-2,2′-dimethyl-[1,1′-biphenyl]-3-yl)methoxy)-2-((methyl((3-methyl-1H-pyrazol-5-yl)methyl)amino)methyl)phenoxy)methyl)nicotinonitrile]
IC50: 1.6 nM

Cc1c(COc2cc(OCc3cncc(C#N)c3)c(CN(C)Cc3ccn(C)n3)cc2Cl)cccc1-c1cccc(OCCCN2CC[C@@H](O)C2)c1C [Example 2026, (R)-5-((4-chloro-5-((3′-(3-(3-hydroxypyrrolidin-1-yl)propoxy)-2,2′-dimethyl-[1,1′-biphenyl]-3-yl)methoxy)-2-((methyl((1-methyl-1H-pyrazol-3-yl)methyl)amino)methyl)phenoxy)methyl)nicotinonitrile]
IC50: 1.9 nM

Cc1c(COc2cc(OCc3cncc(C#N)c3)c(CN(C)Cc3nn(C)cc3Cl)cc2Cl)cccc1-c1cccc(OCCCN2CC[C@@H](O)C2)c1C [Example 2027, (R)-5-((4-chloro-2-((((4-chloro-1-methyl-1H-pyrazol-3-yl)methyl)(methyl)amino)methyl)-5-((3′-(3-(3-hydroxypyrrolidin-1-yl)propoxy)-2,2′-dimethyl-[1,1′-biphenyl]-3-yl)methoxy)phenoxy)methyl)nicotinonitrile]
IC50: 2.3 nM

Cc1c(COc2cc(OCc3cncc(C#N)c3)c(CN(C)Cc3ccccn3)cc2Cl)cccc1-c1cccc(OCCCN2CC[C@@H](O)C2)c1C [Example 2028, (R)-5-((4-chloro-5-((3′-(3-(3-hydroxypyrrolidin-1-yl)propoxy)-2,2′-dimethyl-[1,1′-biphenyl]-3-yl)methoxy)-2-((methyl(pyridin-2-ylmethyl)amino)methyl)phenoxy)methyl)nicotinonitrile]
IC50: 0.2 nM

Cc1c(COc2cc(OCc3cncc(C#N)c3)c(CN(C)Cc3ccncc3)cc2Cl)cccc1-c1cccc(OCCCN2CC[C@@H](O)C2)c1C [Example 2029, (R)-5-((4-chloro-5-((3′-(3-(3-hydroxypyrrolidin-1-yl)propoxy)-2,2′-dimethyl-[1,1′-biphenyl]-3-yl)methoxy)-2-((methyl(pyridin-4-ylmethyl)amino)methyl)phenoxy)methyl)nicotinonitrile]
IC50: 4.1 nM

Cc1c(COc2cc(OCc3cncc(C#N)c3)c(CN(C)Cc3cnccn3)cc2Cl)cccc1-c1cccc(OCCCN2CC[C@@H](O)C2)c1C [Example 2030, (R)-5-((4-chloro-5-((3′-(3-(3-hydroxypyrrolidin-1-yl)propoxy)-2,2′-dimethyl-[1,1′-biphenyl]-3-yl)methoxy)-2-((methyl(pyrazin-2-ylmethyl)amino)methyl)phenoxy)methyl)nicotinonitrile]
IC50: 1.1 nM

Cc1c(COc2cc(OCc3cncc(C#N)c3)c(CN(C)Cc3cccnn3)cc2Cl)cccc1-c1cccc(OCCCN2CC[C@@H](O)C2)c1C [Example 2031, (R)-5-((4-chloro-5-((3′-(3-(3-hydroxypyrrolidin-1-yl)propoxy)-2,2′-dimethyl-[1,1′-biphenyl]-3-yl)methoxy)-2-((methyl(pyridazin-3-ylmethyl)amino)methyl)phenoxy)methyl)nicotinonitrile]
IC50: 0.2 nM
